In publication PMC9694965, “Design of 4-Substituted Sulfonamidobenzoic Acid Derivatives Targeting Coxsackievirus B3” (Life, 2022):

Legend:
[1] = test system: CVB3 Nancy; test: Cytoprotection assay (MTT) in Vero cells infected with CVB3 Nancy; assay type: cell-based, Coxsackievirus B3; details: for EC50: Enterovirus B, Vero cells infected with CVB3 Nancy at m.o.i. 0.001, 72 h, MTT, read-out: EC50 (50% cytoprotective concentration); for SI (selectivity index, ratio CC50/IC50): cytoprotection assay, CC50 72 h / EC50
Procedure: (§1) Vero cells were seeded in 96-well plates in 24 h before the assay. On the assay day, the cells were washed with saline and tested compounds in appropriate concentrations (300–3 μg/mL) in MEM without FBS were added to cells. No compounds were added to virus control wells. The plates were incubated for 1 h at 37 °C at 5% CO2. The cells were then infected with CVB3 Nancy (m.o.i range of 1–0.001) and incubated for 72 h at 37 °C at 5% CO2. No virus was added to the cytotoxicity control wells. Cell viability was then assessed using an MTT test with the following procedure. The cells were washed with saline, and a solution of 3-(4,5-dimethylthiazolyl-2) 2,5-diphenyltetrazolium bromide (ICN Biochemicals Inc., Aurora, OH, USA) ([…]) in MEM was added to the wells (100 µL per well). After 2 h of incubation at 37 °C in 5% CO2, the supernatant from wells was discarded, and the formazan residue was dissolved in DMSO (100 µL per well). The optical density of cells was then measured on a Multiskan multifunctional reader (Thermo Fisher Scientific, Shanghai, China) at a wavelength of 540 nm.
The cytoprotective activity of compounds was considered to be their ability to increase the values of OD compared to control wells (using only a virus, without drugs). Based on the results obtained, the values of IC50, i.e., the concentration of compounds that result in 50% cells protection were calculated for m.o.i. 0.001 using GraphPad Prism 6.01 software.

[2] = test system: Vero cells; test: Cytotoxicity assay (MTT) in Vero cells; assay type: cell-based; details: incubation with the compound only
Procedure: as §1
(§2) The microtetrazolium test (MTT) was used to study the cytotoxicity of the compounds. The permissive cell line Vero was seeded in 96-well plates in Eagles minimal essential medium (MEM) supplemented with 10% FBS. After 24 h, the media were removed, and the wells were washed with saline. Compounds were dissolved in DMSO, and a series of two-fold dilutions of each compound in MEM without FBS were prepared and added to the cells in triplicates. […] The MTT was then performed as described above. Next, the optical density of cells was measured on a Multiskan multifunctional reader (Thermo Fisher Scientific, Shanghai, China) at a wavelength of 540 nm and plotted against the concentration of the compounds to generate the dose–response curve. The 50% cytotoxic dose (CC50) of each compound (i.e., the compound concentration that causes the death of 50% of cells in a culture, or decreases the optical density twice, as compared to the control wells) was calculated using a four-parameter logistic nonlinear regression model (GraphPad Prism 6.01).

[3] = Cytotoxicity assay (MTT) in Vero cells; assay type: cell-based; details: African green monkey; for CC50 at 72 h: 72 h incubation with the compound only; for CC50 at 24 h: 24 h incubation with the compound only
Procedure: as §1, §2

[4] = test system: CVB3 Nancy; test: Thermostability assay (capsid binding, heat inactivation of virus); parameters: species or system Coxsackievirus B3; details: pre-incubation 30 min at 37 °C, thermal gradient 37-55 °C for 2 min; for Temperature to which infectivity of CVB3 was preserved: concentrations greatly exceeding IC50; for Effect on heat inactivation of CVB3 (capsid stabilization): versus virus control
Procedure: CVB3 Nancy was pre-incubated with the compounds tested or an equal volume of MEM (virus control) for 30 min at +37 °C in sterile thin-walled 200 μL PCR-tubes (7 tubes per each treatment condition) in BioRad CFX PCR-machine. The thermal gradient of 37–55 °C for 2 min was then applied, followed by rapid cooling to 4 °C. Subsequently, the infectious virus load at each thermal condition for each compound tested was quantified by end-point dilution assay.

[5] = test system: Coxsackievirus B3 (Nancy); test: Viral yield reduction assay in Vero cells; assay type: cell-based; details: for IC50: Enterovirus B, B3 / CVB3, viral yield reduction, Vero cells, CVB3 Nancy at m.o.i. 0.01, 24 h, read-out: IC50 (50% virus-inhibiting concentration); for SI (selectivity index, ratio CC50/IC50): viral yield reduction assay, CC50 24 h / IC50
Procedure: Coxsackievirus B3 (CVB3, strain Nancy) was obtained from the collection of viruses of the Pasteur Institute (St. Petersburg, Russia). The permissive cell line Vero (ATCC #CCL-81) was used in the study. Infectious titers (in a 50%-tissue culture infection dose, TCID50) were determined in Vero cells for CVB3 by endpoint dilution assay using the following procedure. Permissive cells were seeded into 96-wells plates in Eagles minimal essential medium (MEM) supplemented with 5% fetal bovine serum (FBS). After 24 h, the medium was aspirated, the wells were washed with saline, fresh MEM without FBS was added to the wells and the cells were infected with serial tenfold dilutions of virus stocks (100 µL per well, 4 wells for each dilution). The plates were incubated at +37 °C in 5% CO2 and observed daily for cytopathic effect (CPE). After 72 h the viral titer was calculated in TCID50 using the method of Spearmen-Carber.
The antiviral activity of the compounds was evaluated using viral yield reduction assay. The respective permissive cell line Vero was seeded in MEM supplemented with 5% FBS in 24-well plates. When the cell confluence reached 100%, the compounds tested were dissolved in DMSO, and a series of three-fold dilutions of each compound in MEM without FBS was added to the cells, and incubated at 37 °C in 5% CO2. After 1 h, the media were discarded; equal volumes of fresh serial dilutions of each compound and viral suspension in MEM without FBS at […] were added. In control wells, only MEM without FBS was added. No compounds were added in the virus control wells. The plates were incubated at 4 °C for 1 h. The unbound virus was then washed away and, again, three-fold dilutions of each compound (the final concentration 50–0.6 µg/mL) in MEM without FBS were added to the wells. After 24 h of incubation at 37 °C in 5% CO2, the infectious titer of viral progeny (in TCID50) for each compound concentration, cell control, and virus control wells were determined in permissive cell lines by endpoint dilution assay as described above.
The titer of virus progeny was plotted against log concentration of the compounds tested to generate the dose–response curve. The 50% inhibition concentration (IC50) of each compound tested (i.e., the compound concentration that decreases the infectious viral progeny titer twice, as compared to the control wells) was calculated using a four-parameter logistic nonlinear regression model (GraphPad Prism 6.01).

SMILES | EC50 [1] | SI (selectivity index, ratio CC50/IC50) [1] | melting point | CC50 [2] | CC50 at 72 h [3] | Temperature to which infectivity of CVB3 was preserved [4] | Effect on heat inactivation of CVB3 (capsid stabilization) [4] | CC50 at 24 h [3] | IC50 [5] | SI (selectivity index, ratio CC50/IC50) [5]
NC(=O)C1CCN(S(=O)(=O)c2ccc(N3C(=O)c4ccccc4C3=O)cc2)CC1 [Compound 2h, 1-((4-(1,3-Dioxoisoindolin-2-yl)phenyl)sulfonyl)piperidine-4-carboxamide] | > 726 µM | >1 | 217 to 220 °C | exceeded the maximum concentration used in the assay | > 726 µM |  |  |  |  | 
O=C(O)c1ccc(NS(=O)(=O)c2ccc(NC(=O)c3ccccc3C(=O)O)cc2)cc1 [Compound 4, 2-((4-(N-(4-Carboxyphenyl)sulfamoyl)phenyl)carbamoyl)benzoic acid] | 13.2 ± 1.49 µM | >17.2 | 203 to 205 °C | exceeded the maximum concentration used in the assay | > 227 µM | 52.4 °C | heat inactivation of CVB3 changed to higher temperatures | > 1140 µM | 4.29 ± 1.79 µM | >264
O=C(O)c1ccc(NS(=O)(=O)c2ccc(N3C(=O)c4ccccc4C3=O)cc2)cc1 [Compound 2a, 4-(4-(1,3-Dioxoisoindolin-2-yl)phenylsulfonamido)benzoic acid, reference compound] | < 8.76 µM | >81.1 |  | exceeded the maximum concentration used in the assay | > 710 µM |  | heat inactivation of CVB3 changed to higher temperatures | > 1180 µM | 5.54 ± 0.89 µM | >213
O=C(O)c1ccc(NS(=O)(=O)c2ccc(N3C(=O)C4C5C=CC(C5)C4C3=O)cc2)cc1 (stereo not shown) [Compound 7c, 4-(4-(1,3-Dioxo-3a,4,7,7a-tetrahydro-1H-4,7-methanoisoindol-2(3H)-yl)phenylsulfonamido)benzoic acid] | < 8.44 µM | >81.1 | 241 to 243 °C | exceeded the maximum concentration used in the assay | > 684 µM |  |  | > 1140 µM | 19.6 ± 0.52 µM | >58
O=C(O)c1ccc(NS(=O)(=O)c2ccc(N3C(=O)CCC3=O)cc2)cc1 [Compound 7a, 4-(4-(2,5-Dioxopyrrolidin-1-yl)phenylsulfonamido)benzoic acid] | < 9.88 µM | >34.8 | 243 to 245 °C (dec.) |  | 345 ± 32.2 µM | 52.4 °C | heat inactivation of CVB3 changed to higher temperatures | > 1340 µM | 4.22 ± 0.35 µM | >316
